This is an account of results in patent US20240383875A1, “Benzimidazole Pyridine Derivatives” (Hoffmann-La Roche Inc., priority 2022, published 2024).

Structures are written as SMILES.

Holding throughout (type): biochemical
One experiment deals with SIK3 (Homo sapiens, UniProt Q9Y2K2). The experiment can be described thus: Enzymatic activity assay SIK3, RapidFire mass spectrometry (phosphorylation of CHK-peptide). The note with it: RapidFire MS, inhibition of SIK3; read-out: SIK3 RF IC50. The method, boiled down: (§1)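 Human SIK1/2/3, 5/0.5/1.5 nM; 12.5 mM HEPES pH 7.0, 10 mM Mg acetate, 0.005% BSA. 30 min cpd pre-inc, + CHK-peptide (10 μM soln) + ATP (100 μM soln), 45 min RT. Formic acid stop; RF-MS phospho ratio; IC50.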
Sequence of SIK3 (Q9Y2K2 whole entry): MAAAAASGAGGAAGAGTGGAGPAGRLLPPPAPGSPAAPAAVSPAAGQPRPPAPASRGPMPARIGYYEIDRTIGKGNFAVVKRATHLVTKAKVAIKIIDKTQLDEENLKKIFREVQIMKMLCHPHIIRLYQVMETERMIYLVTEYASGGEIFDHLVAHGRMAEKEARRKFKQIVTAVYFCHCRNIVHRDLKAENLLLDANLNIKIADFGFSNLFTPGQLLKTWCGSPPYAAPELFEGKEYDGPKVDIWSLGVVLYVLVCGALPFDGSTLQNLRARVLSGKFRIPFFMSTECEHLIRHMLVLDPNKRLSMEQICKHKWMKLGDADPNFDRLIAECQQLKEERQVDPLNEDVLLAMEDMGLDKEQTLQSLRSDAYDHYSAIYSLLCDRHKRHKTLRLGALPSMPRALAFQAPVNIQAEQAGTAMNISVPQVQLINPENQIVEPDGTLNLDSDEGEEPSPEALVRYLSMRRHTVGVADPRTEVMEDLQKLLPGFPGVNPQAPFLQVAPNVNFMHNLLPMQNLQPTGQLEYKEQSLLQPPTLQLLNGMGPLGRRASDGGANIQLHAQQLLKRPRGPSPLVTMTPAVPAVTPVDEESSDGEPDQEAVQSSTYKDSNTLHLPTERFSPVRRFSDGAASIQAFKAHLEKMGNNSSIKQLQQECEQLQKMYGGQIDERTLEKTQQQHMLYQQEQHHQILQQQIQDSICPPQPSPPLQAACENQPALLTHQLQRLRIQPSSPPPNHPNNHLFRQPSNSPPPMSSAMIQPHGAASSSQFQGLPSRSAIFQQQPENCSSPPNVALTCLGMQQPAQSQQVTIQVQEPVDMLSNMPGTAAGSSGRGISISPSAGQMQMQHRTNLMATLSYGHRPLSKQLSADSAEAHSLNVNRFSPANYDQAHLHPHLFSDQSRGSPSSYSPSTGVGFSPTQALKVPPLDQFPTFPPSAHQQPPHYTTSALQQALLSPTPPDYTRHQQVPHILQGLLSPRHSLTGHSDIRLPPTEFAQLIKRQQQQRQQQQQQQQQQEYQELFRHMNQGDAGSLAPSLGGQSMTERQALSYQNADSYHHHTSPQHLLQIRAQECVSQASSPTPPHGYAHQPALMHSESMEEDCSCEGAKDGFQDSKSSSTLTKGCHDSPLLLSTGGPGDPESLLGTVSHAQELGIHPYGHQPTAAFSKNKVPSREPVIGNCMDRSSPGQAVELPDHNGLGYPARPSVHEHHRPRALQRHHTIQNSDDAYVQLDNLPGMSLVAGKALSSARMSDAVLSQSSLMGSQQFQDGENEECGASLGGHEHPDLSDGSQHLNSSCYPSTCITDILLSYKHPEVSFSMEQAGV

For another experiment, the target named is SIK1 (Homo sapiens, UniProt P57059). The experiment can be described thus: Enzymatic activity assay SIK1, RapidFire mass spectrometry (phosphorylation of CHK-peptide). The following applies: RapidFire MS, inhibition of SIK1; read-out: SIK1 RF IC50. The method, boiled down:
as §1

In the next experiment the target is SIK2 (Homo sapiens, UniProt Q9H0K1). The experiment can be described thus: Enzymatic activity assay SIK2, RapidFire mass spectrometry (phosphorylation of CHK-peptide). The note with it: RapidFire MS, inhibition of SIK2; read-out: SIK2 RF IC50. The gist of the method:
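Read-out is the summed phospho-species fraction of CHK-peptide by RapidFire mass spectrometry, normalized between DMSO and 1 μM YKL-05-099. The reaction used 0.5 nM SIK2, 100 μM ATP and 10 μM peptide solutions in HEPES pH 7.0/10 mM magnesium acetate for 45 min at ambient temperature.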

Sequence of SIK1 (P57059 whole entry): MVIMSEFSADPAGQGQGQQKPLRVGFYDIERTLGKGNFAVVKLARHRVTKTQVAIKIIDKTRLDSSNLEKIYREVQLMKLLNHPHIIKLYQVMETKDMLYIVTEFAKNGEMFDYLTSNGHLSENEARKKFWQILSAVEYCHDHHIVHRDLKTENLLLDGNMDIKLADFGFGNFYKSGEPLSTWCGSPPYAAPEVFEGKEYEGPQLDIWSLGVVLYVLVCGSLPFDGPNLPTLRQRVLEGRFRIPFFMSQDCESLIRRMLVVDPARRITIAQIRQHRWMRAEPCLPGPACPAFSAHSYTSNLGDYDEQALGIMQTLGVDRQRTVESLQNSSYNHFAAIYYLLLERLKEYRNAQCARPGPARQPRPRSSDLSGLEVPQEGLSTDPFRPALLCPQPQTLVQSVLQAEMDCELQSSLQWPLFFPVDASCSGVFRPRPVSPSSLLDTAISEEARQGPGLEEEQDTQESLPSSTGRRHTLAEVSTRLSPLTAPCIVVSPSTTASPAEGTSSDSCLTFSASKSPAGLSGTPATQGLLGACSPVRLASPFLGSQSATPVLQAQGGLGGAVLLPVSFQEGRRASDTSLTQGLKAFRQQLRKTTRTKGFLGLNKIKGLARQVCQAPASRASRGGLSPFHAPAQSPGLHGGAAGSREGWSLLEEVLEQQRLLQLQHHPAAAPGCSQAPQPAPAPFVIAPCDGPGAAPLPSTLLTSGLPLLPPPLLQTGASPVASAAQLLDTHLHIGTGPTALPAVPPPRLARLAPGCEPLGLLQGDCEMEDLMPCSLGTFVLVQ
Sequence of SIK2 (Q9H0K1 whole entry): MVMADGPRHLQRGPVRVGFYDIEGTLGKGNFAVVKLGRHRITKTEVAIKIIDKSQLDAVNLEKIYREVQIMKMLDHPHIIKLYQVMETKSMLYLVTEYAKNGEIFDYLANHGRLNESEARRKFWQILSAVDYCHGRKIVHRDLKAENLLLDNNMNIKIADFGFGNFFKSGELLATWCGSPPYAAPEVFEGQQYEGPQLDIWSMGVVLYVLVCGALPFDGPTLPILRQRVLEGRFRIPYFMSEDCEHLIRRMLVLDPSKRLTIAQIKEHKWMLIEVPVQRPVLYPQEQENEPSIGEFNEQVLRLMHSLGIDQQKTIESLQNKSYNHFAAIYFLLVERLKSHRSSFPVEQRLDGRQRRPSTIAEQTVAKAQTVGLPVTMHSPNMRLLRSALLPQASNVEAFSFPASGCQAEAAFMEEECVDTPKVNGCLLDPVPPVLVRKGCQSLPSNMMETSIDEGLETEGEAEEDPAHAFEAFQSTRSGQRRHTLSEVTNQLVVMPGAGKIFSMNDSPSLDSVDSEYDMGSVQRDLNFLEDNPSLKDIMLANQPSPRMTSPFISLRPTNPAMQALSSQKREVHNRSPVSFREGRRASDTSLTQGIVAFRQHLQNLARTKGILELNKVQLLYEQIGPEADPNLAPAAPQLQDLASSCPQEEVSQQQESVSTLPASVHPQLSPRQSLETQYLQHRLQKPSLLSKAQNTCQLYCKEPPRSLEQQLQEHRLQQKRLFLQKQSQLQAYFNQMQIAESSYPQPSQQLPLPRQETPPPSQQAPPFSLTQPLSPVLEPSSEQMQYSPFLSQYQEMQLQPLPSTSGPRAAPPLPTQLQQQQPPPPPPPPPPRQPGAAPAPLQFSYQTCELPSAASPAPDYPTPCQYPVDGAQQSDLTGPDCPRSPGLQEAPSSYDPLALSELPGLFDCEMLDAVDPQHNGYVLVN

The IC50 is the concentration that gives 50% inhibition. As to `Cc1ccc(Nc2ccc3c(c2)ncn3-c2ccc(C(C)O)c(C(=O)NCC(F)(F)F)n2)nn1` (stereo not drawn) [Example 124, 3-(1-Hydroxyethyl)-6-[5-[(6-methylpyridazin-3-yl)amino]benzimidazol-1-yl]-N-(2,2,2-trifluoroethyl)pyridine-2-carboxamide; formic acid], the half-maximal inhibitory concentration (IC50) on SIK3 was determined as 10.1 nM; at SIK1 it was 1520 nM; at SIK2, 36 nM.

Take `Cc1ccc(Nc2ccc3ncn(-c4ccc(C(C)O)c(N5CC[C@@H]6NCC[C@H]65)n4)c3c2)nn1` (stereo partly drawn) [Example 125, 1-[6-[6-[(6-Methylpyridazin-3-yl)amino]benzimidazol-1-yl]-2-[(3aR,6aS)-2,3,3a,5,6,6a-hexahydro-1H-pyrrolo[3,2-b]pyrrol-4-yl]-3-pyridyl]ethanol; formic acid]: the IC50 came to 895 nM on SIK3, 981 nM on SIK1 and 863 nM at SIK2.

Regarding `Cc1ccc(Nc2ccc3ncn(-c4ccc(C(C)O)c(N5CC[C@H]6NCC[C@@H]65)n4)c3c2)nn1` (stereo partly drawn) [Example 126, 1-[6-[6-[(6-Methylpyridazin-3-yl)amino]benzimidazol-1-yl]-2-[(3aS,6aR)-2,3,3a,5,6,6a-hexahydro-1H-pyrrolo[3,2-b]pyrrol-4-yl]-3-pyridyl]ethanol; formic acid], the IC50 at SIK3 is 228 nM; on SIK1 it was 65 nM; on SIK2, 74.5 nM.

Consider `Cc1ccc(Nc2ccc3ncn(-c4ccc(C(C)O)c(-n5nc(C(F)F)cc5C)n4)c3c2)nn1` (stereo not drawn) [Example 128, 1-[2-[3-(Difluoromethyl)-5-methyl-pyrazol-1-yl]-6-[6-[(6-methylpyridazin-3-yl)amino]benzimidazol-1-yl]-3-pyridyl]ethanol], for which the IC50 at SIK3 was 155 nM; at SIK1, 193 nM; at SIK2, 89.5 nM.

On to `Cc1ccc(Nc2ccc3c(c2)ncn3-c2ccc(C(C)O)c(-n3nc(C(F)F)cc3C)n2)nn1` (stereo not drawn) [Example 129, 1-[2-[3-(Difluoromethyl)-5-methyl-pyrazol-1-yl]-6-[5-[(6-methylpyridazin-3-yl)amino]benzimidazol-1-yl]-3-pyridyl]ethanol; formic acid], for which the values for the IC50 on SIK3, on SIK1 and at SIK2 were 1.2 nM, 472 nM and 3.9 nM, respectively.

Consider `Cc1cc(C#N)nn1-c1nc(-n2cnc3cc(N4CCN(C5COC5)CC4)c(Br)cc32)ccc1C(C)O` (stereo not drawn) [Example 130, 1-[6-[6-Bromo-5-[4-(oxetan-3-yl)piperazin-1-yl]benzimidazol-1-yl]-3-(1-hydroxyethyl)-2-pyridyl]-5-methyl-pyrazole-3-carbonitrile], for which the half-maximal inhibitory concentration (IC50) at SIK3 was found to be 339 nM; on SIK1, 589 nM; at SIK2 it was 215 nM.

For the compound `CCOc1cc(C)n(-c2nc(-n3cnc4cc(Nc5ccc(C)nn5)ccc43)ccc2C(C)O)n1` (stereo not drawn) [Example 133, 1-[2-(3-Ethoxy-5-methyl-pyrazol-1-yl)-6-[5-[(6-methylpyridazin-3-yl)amino]benzimidazol-1-yl]-3-pyridyl]ethanol; formic acid], the IC50 on SIK3 was determined as 2.2 nM; at SIK1, 447 nM; on SIK2, 7.7 nM.

On to `CCOc1cc(C)n(-c2nc(-n3cnc4ccc(Nc5ccc(C)nn5)cc43)ccc2C(C)O)n1` (stereo not drawn) [Example 134, 1-[2-(3-Ethoxy-5-methyl-pyrazol-1-yl)-6-[6-[(6-methylpyridazin-3-yl)amino]benzimidazol-1-yl]-3-pyridyl]ethanol], for which the IC50 on SIK3 amounted to 1290 nM; on SIK1, 426 nM; at SIK2, 345 nM.

For `Cc1cc(-c2nc(-n3cnc4cc(Nc5ccc(C)nn5)ccc43)ccc2C(C)O)cnn1` (stereo not drawn) [Example 135, 1-[2-(6-Methylpyridazin-4-yl)-6-[5-[(6-methylpyridazin-3-yl)amino]benzimidazol-1-yl]-3-pyridyl]ethanol], the IC50 on SIK3 came to 167 nM; on SIK1, 27700 nM; on SIK2, 589 nM.

Regarding `Cc1ccc(Nc2ccc3c(c2)ncn3-c2ccc(C(C)O)c(N3CCN(CC(F)(F)F)C(=O)C3)n2)nn1` (stereo not drawn) [Example 136, 4-[3-(1-Hydroxyethyl)-6-[5-[(6-methylpyridazin-3-yl)amino]benzimidazol-1-yl]-2-pyridyl]-1-(2,2,2-trifluoroethyl)piperazin-2-one], the IC50 was 3.9 nM on SIK3, 345 nM at SIK1 and 13 nM on SIK2.

On to `Cc1ccc(Nc2ccc3ncn(-c4ccc(C(C)O)c(N5CCN(CC(F)(F)F)C(=O)C5)n4)c3c2)nn1` (stereo not drawn) [Example 137, 4-[3-(1-Hydroxyethyl)-6-[6-[(6-methylpyridazin-3-yl)amino]benzimidazol-1-yl]-2-pyridyl]-1-(2,2,2-trifluoroethyl)piperazin-2-one], for which the IC50 worked out at 746 nM on SIK3, 5410 nM at SIK1 and 1640 nM on SIK2.

For `COc1cc2ncn(-c3ccc(C(C)O)c(-n4nc(C#N)cc4C)n3)c2cc1Nc1ccc(C)nn1` (stereo not drawn) [Example 140, 1-[3-(1-Hydroxyethyl)-6-[5-methoxy-6-[(6-methylpyridazin-3-yl)amino]benzimidazol-1-yl]-2-pyridyl]-5-methyl-pyrazole-3-carbonitrile], the IC50 at SIK3 came to 174 nM; on SIK1 it was 51 nM; at SIK2, 38.8 nM.

As to `Cc1ccc(Nc2ccc3c(c2)ncn3-c2ccc(C(C)O)c(-c3cn(CC(F)(F)F)nc3C)n2)nn1` (stereo not drawn) [Example 143, 1-[6-[5-[(6-Methylpyridazin-3-yl)amino]benzimidazol-1-yl]-2-[3-methyl-1-(2,2,2-trifluoroethyl)pyrazol-4-yl]-3-pyridyl]ethanol], the IC50 on SIK3 is 1.3 nM; on SIK1 it was 103 nM; on SIK2, 0.7 nM.

On to `CNC(=O)c1cc(C)n(-c2nc(-n3cnc4ccc(Nc5ccc(C)nn5)cc43)ccc2C(C)O)n1` (stereo not drawn) [Example 144, 1-[3-(1-Hydroxyethyl)-6-[6-[(6-methylpyridazin-3-yl)amino]benzimidazol-1-yl]-2-pyridyl]-N,5-dimethyl-pyrazole-3-carboxamide], for which the values for the IC50 at SIK3, on SIK1 and on SIK2 were 9240 nM, 8400 nM and 5920 nM, respectively.

As for `Cc1ccc(Nc2ccc3c(c2)ncn3-c2ccc(C(C)O)c(-n3nc(S(C)(=O)=O)cc3C)n2)nn1` (stereo not drawn) [Example 145, 1-[2-(5-Methyl-3-methylsulfonyl-pyrazol-1-yl)-6-[5-[(6-methylpyridazin-3-yl)amino]benzimidazol-1-yl]-3-pyridyl]ethanol], the IC50 at SIK3 was 1.4 nM; on SIK1 it was 552 nM; on SIK2 it was 9 nM.

Regarding `Cc1cc(C#N)nn1-c1nc(-n2cnc3cc(Nc4ccn(C)c(=O)n4)ccc32)ccc1C(C)O` (stereo not drawn) [Example 146, 1-[3-(1-Hydroxyethyl)-6-[5-[(2-keto-1-methyl-pyrimidin-4-yl)amino]benzimidazol-1-yl]-2-pyridyl]-5-methyl-pyrazole-3-carbonitrile], the values for the IC50 on SIK3, at SIK1 and on SIK2 were 7.8 nM, 227 nM and 34.6 nM, respectively.

On to `Cc1ccc(Nc2ccc3c(c2)ncn3-c2ccc(C(O)C(F)(F)F)c(-n3nc(C#N)cc3C)n2)nn1` (stereo not drawn) [Example 148, 5-Methyl-1-[6-[5-[(6-methylpyridazin-3-yl)amino]benzimidazol-1-yl]-3-(2,2,2-trifluoro-1-hydroxy-ethyl)-2-pyridyl]pyrazole-3-carbonitrile], for which the IC50 at SIK3 was determined as 1.2 nM; at SIK1 it was 663 nM; on SIK2 it was 10.3 nM.
